US20010049374A1 (priority 1997, published 2001)
pIC50: −log10 of the molar value. Read-outs that look alike come from different tables or passages of the source.

Target: T1, urokinase enzyme Abbokinase (Homo sapiens, UniProt P00749)
T1 construct: purchased Abbott Laboratories, Abbott Park, Ill
Assay: Determination of urokinase inhibition (Abbokinase, chromogenic substrate S-2444)
Assay type: biochemical

[1] = IC50, Inhibitory potency against urokinase, substrate S-2444 at 200 μM, enzyme 2-3 nM, pH 7.4, 405 nm
[2] = Inhibitory potency against urokinase, substrate S-2444 at 200 μM, enzyme 2-3 nM, pH 7.4, 405 nm, read-out: IC50

Method: Several vials were reconstituted as directed on the vial, aliquoted and stored frozen. The enzyme was further diluted in assay buffer and 10 μl was used in the assay. Enzyme concentration in the assay was 2-3 nM. […] The Spectromax® calculated the reaction rates which were used to calculate percent inhibition of the compounds of this invention versus the reaction rate of the enzyme in the absence of any inhibitor. The Ki's of the inhibitors were calculated from the percent inhibition and previously established Km.

| pIC50 [1] | Compound | pIC50 [2] | other results |
| --- | --- | --- | --- |
| 5.51 | [H]/N=C(/N)c1ccc2cc(C=Cn3ccnc3)ccc2c1 [Example 82, (E)-6-[2-(1H-Imidazol-1-yl)ethenyl]-2-naphthalenecarboximidamide] |  |  |
|  | N-[7-(aminoiminomethyl)-1-naphthalenyl)acetamide [Example 15] | 5.60 |  |
|  | N=C(N)c1ccc2cc(C(=O)Nc3ccccc3)cc(C3CCCN3)c2c1 (stereo not drawn) [Example 207, 6-(aminoiminomethyl)-N-phenol-4-(2-pyrrolidinyl)-2-naphthalenecarboxamide] | 5.39 |  |
| 6.25 | COc1ccc2ccc(C(=N)N)cc2c1Oc1ncccn1 [Example 64, 7-Methoxy-8-[2-pyrimidinyl(oxy)]-2-naphthalenecarboximidamide] |  |  |
|  | N-[6-(Aminoiminomethyl)-2-naphthalenyl]-4-(aminomethyl)benzamide [Example 77] | 6.64 |  |
|  | N=C(N)c1ccc2cc(C(=O)Nc3ccc(N)cc3)ccc2c1 [Example 9] | 5.96 |  |
|  | 6-(aminoiminomethyl)-N-[4-(hydroxymethyl)phenyl]-2-naphthalenecarboxamide [Example 92] | 7.40 |  |
|  | 6-(aminoiminomethyl)-N-(1,2,3,4-tetrahydro-6-quinolinyl)-2-naphthalenecarboxamide [Example 147] | 6.67 |  |
|  | 6-(aminoiminomethyl)-4-[5-(ethylthio)-3-furanyl]-N-phenyl-2-naphthalenecarboxamide [Example 200] | 7.43 |  |
|  | 1-[(7-aminoiminomethyl-2-methoxy-1-naphthalenyl)oxy]-3-bromopropane [Example 21] | 5.77 |  |
| 5.47 | CSc1ccccc1-c1ccc2cc(C(=N)N)ccc2c1 [Example 57, 6-[2-(Methylthio)phenyl]-2-naphthalenecarboximidamide] |  |  |
|  | 6-(aminoiminomethyl)-N-(3, 5-difluorophenyl)-2-naphthalenecarboxamide [Example 190] | 6.25 |  |
|  | N-(6-Aminoiminomethyl-2-naphthalenyl)-N′-benzylurea [Example 69] | 5.86 |  |
|  | (E)-6-[2-[4-(hydroxymethyl)phenyl]ethenyl]-2-naphthalenecarboximidamide [Example 108] | 6.00 |  |
| 6.62 | [H]/N=C(/N)c1ccc2cc(C=Cc3ccc(CN)cc3)ccc2c1 [Example 98, (E)-6-[2-[4-(aminomethyl)phenyl]ethenyl]-2-naphthalenecarboximidamide] |  |  |
| < 4.52 | NC(=NO)c1ccc2cc(C(=O)Nc3ccccc3)ccc2c1 [Example 171] |  |  |
|  | CC(C)(C)OC(=O)Nc1ccc(NC(=O)Nc2ccc3cc(C(=N)N)ccc3c2)cc1 [Example 79, 1,1-dimethylethyl [4-[[[6-aminoiminomethyl)-2-naphthalenyl)amino]carbonyl]amino]phenyl carbamate] | 6.02 |  |
|  | 6-(aminoiminomethyl)-N-(1H-indazol-5-yl)-2-naphthalenecarboxamide [Example 204] | 6.48 |  |
|  | (S)-2-Amino-N-[1-[(6-aminoiminomethyl-2-naphthalenyl)carbonyl]cyclohexyl]propionamide [Example 37] | 5.63 |  |
| 5.34 | N=C(N)c1ccc2cc(C#CCCCc3ccccc3)ccc2c1 [Example 32, 6-(5-Phenylpentynyl)-2-naphthalenecarboximidamide] |  |  |

| pIC50 [1] | Compound | pIC50 [2] | other results |
| --- | --- | --- | --- |
| 6.14 | [H]/N=C(/N)c1ccc2cccc(C=Cc3ccc4c(c3)OCO4)c2c1 [Example 61, (E)-8-[2-(1,3-Benzodioxol-5-yl)ethenyl]-2-naphthalenecarboximidamide] |  |  |
| 6.64 | COc1ccc(C#Cc2ccc3cc(C(=N)N)ccc3c2)cc1CCN [Example 125, 6-[[3-(2-aminoethyl)-4-methoxyphenyl]ethynyl]-2-naphthalenecarboximidamide] |  |  |
|  | methyl 4-[[[7-(aminoiminomethyl)-1-(2-pyrimidinylamino)-2-naphthalenyl]oxy]methyl]benzoate [Example 133] | 7.36 |  |
|  | 1,1-Dimethylethyl [4- [[(6-aminoiminomethyl-2-naphthalenyl)amino]carbonyl]phenyl]carbamate [Example 76] | 6.02 |  |
|  | methyl 2-[[6-(aminoiminomethyl)-2-naphthalenyl]oxy]acetate [Example 185] | 5.50 |  |
|  | N-[4-(aminocarbonyl)phenyl]-6-(aminoiminomethyl)-2-naphthalenecarboxamide [Example 184] | 6.43 |  |
|  | 6-(aminoiminomethyl)-N-(5-methyl-2-pyridinyl)-2-naphthalenecarboxamide [Example 198] | 6.30 |  |
|  | 6-(aminoiminomethyl)-N-(4-ethylphenyl)-2-naphthalenecarboxamide [Example 142] | 6.27 |  |
|  | 8-(carbonylbenzyloxy)amino-2-naphthalenecarboximidamide [Example 14] | 6.48 |  |
|  | N-[7-(aminoiminomethyl)-1-naphthalenyl]-2-hydroxyacetamide [Example 162] | 5.88 |  |
|  | 6-(aminoiminomethyl)-N-[4-(hydroxymethyl)phenyl]-4-(2-pyrimidinylamino)-2-naphthalenecarboxamide [Example 168] | 8.52 |  |
|  | 6-(aminoiminomethyl)-N-(3-propoxyphenyl)-2-naphthalenecarboxamide [Example 218] | 7.07 |  |
|  | Methyl [7-(aminoiminomethyl)-1-naphthalenyl)carbamate [Example 16] | 7.52 |  |
|  | 6-(aminoiminomethyl)-N-(1H-pyrazol-3-yl)-2-naphthalenecarboxamide [Example 191] | 6.05 |  |
| 5.96 | N=C(N)c1ccc2cc(C3CC3c3ccc(CO)cc3)ccc2c1 (stereo not drawn) [Example 215, 6-[2-[4-(hydroxymethyl)phenyl]-1-cyclopropyl]-2-naphthalenecarboximidamide] |  |  |
| 5.59 | N=C(N)c1ccc2cc(-c3ncc(-c4ccccc4)s3)ccc2c1 [Example 145, 6-(5-phenyl-2-thiazolyl)-2-naphthalenecarboximidamide] |  |  |
|  | COC(=O)CCCCOc1ccc2ccc(C(=N)N)cc2c1 [Example 119, methyl 5-[7-[(aminoiminomethyl)-2-naphthalenyl]oxy]pentanoate] | 5.36 |  |
|  | N-[7-(aminoiminomethyl)-1-naphthalenyl]benzenemethanesulfonamide [Example 20] | 6.10 |  |
|  | COc1ccc2ccc(C(=N)N)cc2c1C1CCOC1 (racemic) [Example 62, (±)-7-Methoxy-8-(tetrahydro-3-furanyl)-2-naphthalenecarboximidamide] |  | pIC50 (IC50): 6.19 |
|  | 6-(aminoiminomethyl)-N-(3-ethoxyphenyl)-2-naphthalenecarboxamide [Example 223] | 7.15 |  |

| pIC50 [1] | Compound | pIC50 [2] | other results |
| --- | --- | --- | --- |
|  | COc1ccc2ccc(C(=N)N)cc2c1Oc1c(F)c(F)c(F)c(F)c1F [Example 67, 7-Methoxy-8-pentafluorophenoxy-2-naphthalenecarboximidamide] | 5.56 |  |
|  | 6-(aminoiminomethyl)-N-(2-naphthalenyl)-2-naphthalenecarboxamide [Example 143] | 6.44 |  |
|  | N=C(N)c1ccc2cc(/C=C/c3ccc(C(N)=O)cc3)ccc2c1 [Example 88, (E)-4-[2-(6-Aminoininomethyl-2-naphthalenyl)ethenyl]benzamide] | 5.56 |  |
|  | 4-[(6-Aminoiminomethyl-2-naphthalenyl)oxy]-N-methylbenzeneacetamide [Example 56] | 5.54 |  |
|  | 6-(aminoiminomethyl)-N-[3-(1-methylethoxy)phenyl]-2-naphthalenecarboxamide [Example 211] | 7.14 |  |
|  | methyl [7-(aminoiminomethyl)-2-methoxy-I-naphthalenyl)carbamate [Example 99] | 5.52 |  |
|  | 6-(aminoiminomethyl)-4-(3-furanyl)-N-(1H-pyrazol-3-yl)-2-naphthalenecarboxamide [Example 116] | 7.35 |  |
|  | 6-(aminoiminomethyl)-4-(3-furanyl)-N-phenyl-2-naphthalenecarboxamide [Example 152] | 7.08 |  |
| 5.48 | N=C(N)c1ccc2cc(Oc3ccccc3C=O)ccc2c1 [Example 49, 6-(2-Formylphenoxy)-2-naphthalenecarboximidamide] |  |  |
| 6.08 | [H]/N=C(/N)c1ccc2cc(C=Cc3ccc([C@@H](N)CO)cc3)ccc2c1 [Example 105, (E)-6-[2-[4-(1R-amino-2-hydroxyethyl)phenyl]ethenyl]-2-naphthalenecarboximidamide] |  |  |
|  | 4-[[[7-(aminoiminomethyl)-1-(2-pyrimidinylamino)-2-naphthalenyl]oxy]methyl]benzoic acid [Example 134] | 7.19 |  |
| 6.10 | COc1ccc2ccc(C(=N)N)cc2c1NCc1ccccc1 [Example 101, 7-methoxy-8-[(phenylmethyl)amino]-2-naphthalenecarboximidamide] |  |  |
| 5.48 | N=C(N)c1ccc2cc(N)ccc2c1 [Example 73, 6-Aminonaphthalene-2-carboximidamide] |  |  |
|  | N-[7-(aminoiminomethyl)-1-naphthalenyl]-N′-methylurea [Example 157] | 5.51 |  |
| 5.33 | CC(=O)C=Cc1ccc2cc(C(=N)N)ccc2c1 [Example 52, 6-(3-Oxo-1-butenyl)-2-naphthalenecarboximidamide] |  |  |
|  | N=C(N)c1ccc2cc(OCC(=O)O)ccc2c1 [Example 212] | 5.29 |  |
| 5.53 | CC(C)CC#Cc1ccc2cc(C(=N)N)ccc2c1 [Example 31, 6-(4-Methyl-1-pentynyl)-2-naphthalenecarboximidamide] |  |  |
| 5.24 | N=C(N)c1ccc2ccc(OCCN3CCOCC3)cc2c1 [Example 206, 7-[2-(4-morpholinyl)ethoxy]-2-naphthalenecarboximidamide] |  |  |
| 5.50 | COc1ccc2ccc(C(=N)N)cc2c1Oc1ccc([N+](=O)[O-])cc1 [Example 66, 7-Methoxy-8-(4-nitrophenoxy)-2-naphthalenecarboximidamide] |  |  |
| 7.30 | COc1ccc2ccc(C(=N)N)cc2c1Nc1ncccn1 [Example 91, 7-Methoxy-8-[2-pyrimidinyl(amino)]-2-naphthalenecarboximidamide] |  |  |
